Experiments:
[1] = literature, qualitative; cited from earlier work
[2] = literature, qualitative; cited from earlier work; remark: listed apart in the source
[3] = literature, qualitative; cited from earlier work; remark: listed apart in the source
in vitro = format: cell-based; conditions: human, u937 cells, MTT method
Experimental: (§1) U937 cells (derived from human lymphocytes) infected with HIV (type IIIB) were cultured in RPMI-1640 medium (Biocell Laboratories) containing Test Compound (I) and 10% fetal bovine serum (FBS) at 37° C. for 15 minutes in a CO2 -incubator. The cultured U937 cells were washed with RPMI-1640 medium and then cultured in RPMI-1640 medium containing 10% FBS at 37° C. for 6 hours in the CO2 -incubator. The degree of inhibition of HIV budding by the test compound was evaluated by the reverse transcriptase activity in a unit culture. Cytotoxicity test was carried out by the MTT method [J. Immunol. Method., 65, 55 (1983)].

platelet = conditions: 67th Annual Meeting of the Japanese Pharmacological Society (1994); cited from earlier work
smooth muscle = conditions: 113th Meeting of the Japanese Society of Veterinary Science (1992); cited from earlier work
actin = conditions: 67th Annual Meeting of the Japanese Pharmacological Society (1994); cited from earlier work
HIV (type IIIB) = test: HIV proliferation inhibitory activity: HIV budding from infected U937 cells, evaluated by reverse transcriptase activity; format: cell-based; conditions: 15 min with compound, then 6 h culture
Experimental: as §1

Structure (SMILES)	cytotoxicity [1]	antifungal activity [2]	also measured
COC(CC1OC(=O)CC(OC(C)=O)CCCC(O)C(C)C(OC)c2coc(n2)-c2coc(n2)-c2coc(n2)/C=C/CC(OC)C1C)C(C)CCC(=O)C(C)C(OC)C(C)/C=C/N(C)C=O (centres unmarked) [Kabiramide E]	have cytotoxicity		
COC(CC1OC(=O)CC(O)CCCC(O)C(C)C(OC)c2coc(n2)-c2coc(n2)-c2coc(n2)/C=C/CCC1C)C(C)CCC(=O)C(C)C(OC)C(C)/C=C/N(C)C=O (centres unmarked) [Tetrahydrohalichondramide]	has cytotoxicity	antifungal activity	
COC(CC1OC(=O)CC(O)CC=CC(=O)C(C)C(OC)c2coc(n2)-c2coc(n2)-c2coc(n2)/C=C/CCC1C)C(C)CCC(=O)C(C)C(C/C=C/N(C)C=O)OC (centres unmarked) [Isohalichondramide]	have cytotoxicity	antifungal activity	
COC(CC1OC(=O)CC(O)CC=CC(=O)C(C)C(OC)c2coc(n2)-c2coc(n2)C(=O)NC(=O)/C=C/CCC1C)C(C)CCC(=O)C(C)C(C/C=C/N(C)C=O)OC (centres unmarked) [Isohalichondramide (imide form)]	have cytotoxicity	antifungal activity	
COC(CC1OC(=O)CC(O)C/C=C/C(=O)C(C)C(OC)c2coc(n2)-c2coc(n2)-c2coc(n2)/C=C/CC(O)C1C)C(C)CCC(=O)C(C)C(C/C=C/N(C)C=O)OC (centres unmarked) [Jaspisamide B]	have cytotoxicity		
COC(C)C(=O)OC(CCC(C)C(CC1OC(=O)CC(O)C/C=C/C(=O)C(C)C(OC)c2coc(n2)-c2coc(n2)-c2coc(n2)/C=C/CC(OC)C1C)OC)C(C)C(OC(C)=O)C(C)/C=C/N(C)C=O (centres unmarked) [Mycalolide C]	have cytotoxicity	antifungal activity	
COC(CC1OC(=O)CC(O)CC=CC(=O)C(C)C(OC)c2coc(n2)-c2coc(n2)-c2coc(n2)/C=C/CCC1C)C(C)CCC(=O)C(C)C(CCC(=O)O)OC (centres unmarked) [Isohalichondramide (carboxylic acid form)]	have cytotoxicity	antifungal activity	
COC(CC1OC(=O)CC(O)CCCC(=O)C(C)C(OC)c2coc(n2)-c2coc(n2)-c2coc(n2)/C=C/CCC1C)C(C)CCC(=O)C(C)C(C/C=C/N(C)C=O)OC (centres unmarked) [Dihydrohalichondramide]	have cytotoxicity	antifungal activity	
COC(CC1OC(=O)CC(O)CCCC(=O)CC(C)c2coc(n2)-c2coc(n2)-c2coc(n2)/C=C/CC(OC)C1C)C(C)CCC(=O)C(C)C(OC(C)=O)C(C)/C=C/N(C)C=O (centres unmarked) [Ulpualide A]	have cytotoxicity		antibacterial activity [3]: antibacterial activity
COC(CC1OC(=O)CC(O)CCCC(=O)C(C)C(OC)c2coc(n2)-c2coc(n2)-c2coc(n2)/C=C/CCC1C)C(C)CCC(=O)C(C)C(OC)C(C)/C=C/N(C)C=O (centres unmarked) [33-Methyldihydrohalichondramide]	have cytotoxicity		
COCC(OC)C(=O)OC(CCC(C)C(CC1OC(=O)CC(O)CCCC(=O)CC(C)c2coc(n2)-c2coc(n2)-c2coc(n2)/C=C/CC(OC)C1C)OC)C(C)C(OC(C)=O)C(C)/C=C/N(C)C=O (centres unmarked) [Ulpualide B]	have cytotoxicity		antibacterial activity [3]: antibacterial activity
COC(CC1OC(=O)CC(O)C/C=C/C(=O)C(C)C(OC)c2coc(n2)-c2coc(n2)-c2coc(n2)/C=C/CCC1C)C(C)CCC(=O)C(C)C(OC)C(C)/C=C/N(C)C=O (centres unmarked) [Jaspisamide C]	have cytotoxicity		
COC(CC1OC(=O)CC(OC(N)=O)CCCC(O)C(CO)C(OC)c2coc(n2)-c2coc(n2)-c2coc(n2)/C=C/CC(OC)C1C)C(C)CCC(=O)C(C)C(OC)C(C)/C=C/N(C)C=O (centres unmarked) [Kabiramide A]	have cytotoxicity		
COCC(OC)C(=O)OC(CCC(C)C(CC1OC(=O)CC(O)C/C=C/C(=O)C(C)C(OC)c2coc(n2)-c2coc(n2)-c2coc(n2)/C=C/CC(OC)C1C)OC)C(C)C(OC(C)=O)C(C)/C=C/N(C)C=O (centres unmarked) [Mycalolide B]	have cytotoxicity	antifungal activity	cytotoxicity at 0.1 µM (in vitro; 10^-7 M): 4.3%; cytotoxicity at 0.01 µM (in vitro; 10^-8 M): 2.2%; cytotoxicity at 0.001 µM (in vitro; 10^-9 M): 1.5%; cytotoxicity at 0.0001 µM (in vitro; 10^-10 M): 0.7%; anti-platelet activity (platelet): anti-platelet activity; inhibitory activity against contraction of smooth muscle (smooth muscle): inhibitory activity against contraction of smooth muscle; actin polymerization inhibitory activity (actin): actin polymerization inhibitory activity; inhibition at 0.1 µM (HIV (type IIIB); Human immunodeficiency virus 1, U-937, 10^-7 M): 71.4%; inhibition at 0.01 µM (HIV (type IIIB); Human immunodeficiency virus 1, U-937, 10^-8 M): 57.1%; inhibition at 0.001 µM (HIV (type IIIB); Human immunodeficiency virus 1, U-937, 10^-9 M): 28.6%; inhibition at 0.0001 µM (HIV (type IIIB); Human immunodeficiency virus 1, U-937, 10^-10 M): 14.3%
COC(CC1OC(=O)CC(O)CCCC(O)C(C)C(OC)c2coc(n2)-c2coc(n2)-c2coc(n2)/C=C/CC(OC)C1C)C(C)CCC(=O)C(C)C(OC)C(C)/C=C/N(C)C=O (centres unmarked) [Kabiramide D]	have cytotoxicity		
COC(CC1OC(=O)CC(O)CC(O)CC(=O)C(C)C(OC)c2coc(n2)-c2coc(n2)-c2coc(n2)/C=C/CCC1C)C(C)CCC(=O)C(C)C(C/C=C/N(C)C=O)OC (centres unmarked) [Jaspisamide A]	have cytotoxicity		
COC(CC1OC(=O)CC(O)C/C=C/C(=O)C(C)C(OC)c2coc(n2)-c2coc(n2)-c2coc(n2)/C=C/CCC1C)C(C)CCC(=O)C(C)C(C/C=C/N(C)C=O)OC (centres unmarked) [Halichondramide]	have cytotoxicity	antifungal activity	
COC(=O)/C=C/CCC(C)C(CC(OC)C(C)CCC(=O)C(C)C(C/C=C/N(C)C=O)OC)OC(=O)CC(O)CC=CC(=O)C(C)C(OC)c1coc(-c2coc(C(N)=O)n2)n1 (centres unmarked) [Isohalichondramide (ester form)]	have cytotoxicity	antifungal activity	
COC(CC1OC(=O)CC(OC(N)=O)CCCC(O)C(C)C(OC)c2coc(n2)-c2coc(n2)-c2coc(n2)/C=C/CC(O)C1C)C(C)CCC(=O)C(C)C(OC)C(C)/C=C/N(C)C=O (centres unmarked) [Kabiramide B]	have cytotoxicity		
COC(CC1OC(=O)CC(O)C/C=C/C(=O)C(C)C(OC)c2coc(n2)-c2coc(n2)-c2coc(n2)/C=C/CC(OC)C1C)C(C)CCC(=O)C(C)C(OC(C)=O)C(C)/C=C/N(C)C=O (centres unmarked) [Mycalolide A]	have cytotoxicity	antifungal activity	
COC(CC1OC(=O)CC(OC(N)=O)CCCC(O)C(C)C(OC)c2coc(n2)-c2coc(n2)-c2coc(n2)/C=C/CC(OC)C1C)C(C)CCC(=O)C(C)C(OC)C(C)/C=C/N(C)C=O (centres unmarked) [Kabiramide C]		has antifungal activity	

Reference: patent US5760065A, “Anti-HIV agent” (priority 1994, dated 1998)
